Measured values: US6737383B1, “Herbicidal oxadiazolidines” (priority 1999, dated 2004)

Key:
sugar beet = experiment: Test B pre/postemergence sugar beet; type: in vivo, Beta vulgaris; settings: for Sugarbeets plant response rating: scale of 0 to 10 where 0 is no effect and 10 is complete control
Method in brief: (§1)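 Response is a visual 0-to-10 score relative to untreated plants, where 0 means no effect and 10 means complete control, taken twelve to sixteen days after application. Treatments went onto soil at planting and onto foliage of 1- to 4-leaf plants, using a surfactant-containing non-phytotoxic solvent.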

morningglory = experiment: Test B pre/postemergence morningglory; type: in vivo, Ipomoea hederacea; settings: for Morningglory plant response rating: scale of 0 to 10 where 0 is no effect and 10 is complete control
Method in brief: as §1

corn = experiment: Test B pre/postemergence corn; type: in vivo, Zea mays; settings: for Corn plant response rating: scale of 0 to 10 where 0 is no effect and 10 is complete control
Method in brief: as §1

rice = experiment: Test B flood test rice; type: in vivo, Oryza sativa
Method in brief: (§2)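 Flood test on plants grown to the 2-leaf stage; treated plants kept in greenhouse twelve to sixteen days, then visually rated against controls on a 0 (no effect) to 10 (complete control) scale.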

wild oat = experiment: Test B pre/postemergence wild oat; type: in vivo, Avena fatua; settings: for Wild oats plant response rating: scale of 0 to 10 where 0 is no effect and 10 is complete control
Method in brief: as §1

duck salad = experiment: Test B flood test duck salad; type: in vivo, Heteranthera limosa
Method in brief: as §2

surinam grass = experiment: Test B pre/postemergence surinam grass; type: in vivo, Brachiaria decumbens; settings: for B. signalgrass plant response rating: scale of 0 to 10 where 0 is no effect and 10 is complete control
Method in brief: as §1

crabgrass = experiment: Test B pre/postemergence crabgrass; type: in vivo, Digitaria sanguinalis; settings: for Crabgrass plant response rating: scale of 0 to 10 where 0 is no effect and 10 is complete control
Method in brief: as §1

rape = experiment: Test B pre/postemergence rape; type: in vivo, Brassica napus; settings: for Rape plant response rating: scale of 0 to 10 where 0 is no effect and 10 is complete control
Method in brief: as §1

giant foxtail = experiment: Test B pre/postemergence giant foxtail; type: in vivo, Setaria faberii; settings: for Giant foxtail plant response rating: scale of 0 to 10 where 0 is no effect and 10 is complete control
Method in brief: as §1

bamyardgrass = experiment: Test B flood test barnyardgrass; type: in vivo, Echinochloa crus-galli
Method in brief: as §2

smallflower flatsedge = experiment: Test B flood test smallflower flatsedge; type: in vivo, Cyperus difformis
Method in brief: as §2

soybean = experiment: Test B pre/postemergence soybean; type: in vivo, Glycine max; settings: for Soybean plant response rating: scale of 0 to 10 where 0 is no effect and 10 is complete control
Method in brief: as §1

purple nutsedge = experiment: Test B pre/postemergence purple nutsedge; type: in vivo, Cyperus rotundus; settings: for Nutsedge plant response rating: scale of 0 to 10 where 0 is no effect and 10 is complete control
Method in brief: as §1

cocklebur = experiment: Test B pre/postemergence cocklebur; type: in vivo, Xanthium strumarium; settings: for Cocklebur plant response rating: scale of 0 to 10 where 0 is no effect and 10 is complete control
Method in brief: as §1

pigweed = experiment: Test B pre/postemergence pigweed; type: in vivo, Amaranthus retroflexus; settings: for Redroot pigweed plant response rating: scale of 0 to 10 where 0 is no effect and 10 is complete control
Method in brief: as §1

[1] = Postemergence, Rate 125 g/ha, scale 0 to 10, 0 is no effect, 10 is complete control
[2] = Postemergence, Rate 250 g/ha, scale 0 to 10, 0 is no effect, 10 is complete control
[3] = Preemergence, Rate 62 g/ha, scale 0 to 10 (0 no effect, 10 complete control)
[4] = Rate 500 g/ha, Postemergence, scale 0 to 10, 0 no effect, 10 complete control
[5] = Rate 62 g/ha, flood test species, Pre-emergence, visual evaluation after twelve to sixteen days
[6] = Rate 125 g/ha, under heading Pre-emergence, flood test species, visual evaluation after twelve to sixteen days
[7] = Rate 250 g/ha, Pre-emergence, flood-test species, scale 0 to 10, 0 is no effect, 10 is complete control
[8] = Rate 500 g/ha, Pre-emergence, flood test species, scale 0 to 10 (0 no effect, 10 complete control)

CC(C)N(C(=O)n1oc(=O)n(N2C(C)CCCC2C)c1=O)c1ccc(F)cc1F (stereo not shown) [Compound 383]
6: B. signalgrass plant response rating (surinam grass; Preemergence, Rate 500 g/ha) | Plant response rating, Crabgrass (crabgrass; [3]) | Plant response rating, Giant foxtail (giant foxtail; [2]) | Plant response rating, Giant foxtail (giant foxtail; [4])
1: Plant response rating, Crabgrass (crabgrass; [1])
9: Crabgrass plant response rating (crabgrass; Preemergence, Rate 250 g/ha)
8: Crabgrass plant response rating (0 to 10 scale) (crabgrass; Preemergence, Rate 125 g/ha)
3: Plant response rating, Soybean (soybean; [1]) | Plant response rating, Soybean (soybean; [2]) | Redroot pigweed plant response rating (pigweed; Preemergence, Rate 500 g/ha)
10: Crabgrass plant response rating (crabgrass; Preemergence, Rate 500 g/ha) | Giant foxtail plant response rating (giant foxtail; Preemergence, Rate 250 g/ha) | Giant foxtail plant response rating (giant foxtail; Preemergence, Rate 500 g/ha)
2: Soybean plant response rating (soybean; Rate 62 g/ha, Postemergence)
0: Plant response rating, Sugarbeets (sugar beet; [1]) | Plant response rating, Sugarbeets (sugar beet; [2]) | Plant response rating, Sugarbeets (sugar beet; [3]) | Sugarbeets plant response rating (0 to 10 scale) (sugar beet; Preemergence, Rate 125 g/ha) | Sugarbeets plant response rating (sugar beet; Preemergence, Rate 250 g/ha) | Sugarbeets plant response rating (sugar beet; Preemergence, Rate 500 g/ha) | Sugarbeets plant response rating (sugar beet; Rate 62 g/ha, Postemergence) | Plant response rating, Sugarbeets (sugar beet; [4]) | Plant response rating, Morningglory (morningglory; [1]) | Plant response rating, Morningglory (morningglory; [2]) | Plant response rating, Morningglory (morningglory; [3]) | Morningglory plant response rating (0 to 10 scale) (morningglory; Preemergence, Rate 125 g/ha) | Morningglory plant response rating (morningglory; Preemergence, Rate 250 g/ha) | Morningglory plant response rating (morningglory; Preemergence, Rate 500 g/ha) | Morningglory plant response rating (morningglory; Rate 62 g/ha, Postemergence) | Plant response rating, Morningglory (morningglory; [4]) | Plant response rating, Corn (corn; [1]) | Plant response rating, Corn (corn; [2]) | Plant response rating, Corn (corn; [3]) | Corn plant response rating (0 to 10 scale) (corn; Preemergence, Rate 125 g/ha) | Corn plant response rating (corn; Preemergence, Rate 250 g/ha) | Corn plant response rating (corn; Preemergence, Rate 500 g/ha) | Corn plant response rating (corn; Rate 62 g/ha, Postemergence) | Plant response rating, Corn (corn; [4]) | Plant response rating, Rice (0 to 10 scale, 0 is no effect, 10 is complete control) (rice; [5]) | Rice plant response rating (0 to 10 scale, 0 is no effect, 10 is complete control) (rice; [6]) | Rice plant response rating (rice; [7]) | Rice plant response rating (rice; [8]) | Plant response rating, Wild oats (wild oat; [1]) | Plant response rating, Wild oats (wild oat; [2]) | Plant response rating, Wild oats (wild oat; [3]) | Wild oats plant response rating (0 to 10 scale) (wild oat; Preemergence, Rate 125 g/ha) | Wild oats plant response rating (wild oat; Preemergence, Rate 250 g/ha) | Wild oats plant response rating (wild oat; Preemergence, Rate 500 g/ha) | Wild oats plant response rating (wild oat; Rate 62 g/ha, Postemergence) | Plant response rating, Wild oats (wild oat; [4]) | Plant response rating, Ducksalad (0 to 10 scale, 0 is no effect, 10 is complete control) (duck salad; [5]) | Ducksalad plant response rating (0 to 10 scale, 0 is no effect, 10 is complete control) (duck salad; [6]) | Ducksalad plant response rating (duck salad; [7]) | Ducksalad plant response rating (duck salad; [8]) | Plant response rating, B. signalgrass (surinam grass; [1]) | Plant response rating, B. signalgrass (surinam grass; [2]) | Plant response rating, B. signalgrass (surinam grass; [3]) | B. signalgrass plant response rating (0 to 10 scale, 0 is no effect, 10 is complete control) (surinam grass; Preemergence, Rate 125 g/ha) | B. signalgrass plant response rating (surinam grass; Preemergence, Rate 250 g/ha) | B. signalgrass plant response rating (surinam grass; Rate 62 g/ha, Postemergence) | Plant response rating, B. signalgrass (surinam grass; [4]) | Crabgrass plant response rating (crabgrass; Rate 62 g/ha, Postemergence) | Plant response rating, Rape (rape; [1]) | Plant response rating, Rape (rape; [2]) | Plant response rating, Rape (rape; [3]) | Rape plant response rating (0 to 10 scale) (rape; Preemergence, Rate 125 g/ha) | Rape plant response rating (rape; Preemergence, Rate 250 g/ha) | Rape plant response rating (rape; Preemergence, Rate 500 g/ha) | Rape plant response rating (rape; Rate 62 g/ha, Postemergence) | Plant response rating, Rape (rape; [4]) | Plant response rating, Giant foxtail (giant foxtail; [1]) | Plant response rating, Giant foxtail (giant foxtail; [3]) | Giant foxtail plant response rating (giant foxtail; Rate 62 g/ha, Postemergence) | Plant response rating, Barnyardgrass (0 to 10 scale, 0 is no effect, 10 is complete control) (bamyardgrass; [5]) | Barnyardgrass plant response rating (0 to 10 scale, 0 is no effect, 10 is complete control) (bamyardgrass; [6]) | Barnyardgrass plant response rating (bamyardgrass; [7]) | Barnyardgrass plant response rating (bamyardgrass; [8]) | Plant response rating, S. Flatsedge (0 to 10 scale, 0 is no effect, 10 is complete control) (smallflower flatsedge; [5]) | S. Flatsedge plant response rating (0 to 10 scale, 0 is no effect, 10 is complete control) (smallflower flatsedge; [6]) | S. Flatsedge plant response rating (smallflower flatsedge; [7]) | S. Flatsedge plant response rating (smallflower flatsedge; [8]) | Plant response rating, Soybean (soybean; [3]) | Soybean plant response rating (0 to 10 scale) (soybean; Preemergence, Rate 125 g/ha) | Soybean plant response rating (soybean; Preemergence, Rate 250 g/ha) | Soybean plant response rating (soybean; Preemergence, Rate 500 g/ha) | Plant response rating, Nutsedge (purple nutsedge; [1]) | Plant response rating, Nutsedge (purple nutsedge; [2]) | Plant response rating, Nutsedge (purple nutsedge; [3]) | Nutsedge plant response rating (0 to 10 scale) (purple nutsedge; Preemergence, Rate 125 g/ha) | Nutsedge plant response rating (purple nutsedge; Preemergence, Rate 250 g/ha) | Nutsedge plant response rating (purple nutsedge; Preemergence, Rate 500 g/ha) | Nutsedge plant response rating (purple nutsedge; Rate 62 g/ha, Postemergence) | Plant response rating, Nutsedge (purple nutsedge; [4]) | Plant response rating, Cocklebur (cocklebur; [1]) | Plant response rating, Cocklebur (cocklebur; [2]) | Plant response rating, Cocklebur (cocklebur; [3]) | Cocklebur plant response rating (0 to 10 scale) (cocklebur; Preemergence, Rate 125 g/ha) | Cocklebur plant response rating (cocklebur; Preemergence, Rate 250 g/ha) | Cocklebur plant response rating (cocklebur; Preemergence, Rate 500 g/ha) | Cocklebur plant response rating (cocklebur; Rate 62 g/ha, Postemergence) | Plant response rating, Cocklebur (cocklebur; [4]) | Plant response rating, Redroot pigweed (pigweed; [1]) | Plant response rating, Redroot pigweed (pigweed; [2]) | Plant response rating, Redroot pigweed (pigweed; [3]) | Redroot pigweed plant response rating (0 to 10 scale) (pigweed; Preemergence, Rate 125 g/ha) | Redroot pigweed plant response rating (pigweed; Preemergence, Rate 250 g/ha) | Redroot pigweed plant response rating (pigweed; Rate 62 g/ha, Postemergence) | Plant response rating, Redroot pigweed (pigweed; [4])
4: Plant response rating, Crabgrass (crabgrass; [2]) | Plant response rating, Crabgrass (crabgrass; [4])
7: Giant foxtail plant response rating (0 to 10 scale) (giant foxtail; Preemergence, Rate 125 g/ha)
5: Plant response rating, Soybean (soybean; [4])
